In patent CN114106008A, “一种从丹参中提取分离的二萜醌类化合物及其方法和应用” (Chengdu Push Bio Technology Co ltd, priority 2021, dated 2022):

How the values were obtained:
[1] = system: human myelomonocytic leukemia cells MV-4-11 [人髓性单核细胞白血病细胞 MV-4-11]; experiment: MTT proliferation inhibition, MV4-11 cells, 72 h; type: cell-based
[2] = system: human diffuse large B lymphoma cells TMD-8 [人弥漫大B淋巴瘤细胞TMD-8]; experiment: MTT proliferation inhibition, TMD-8 cells, 72 h; type: cell-based
[3] = system: human acute myeloid leukemia cells MOLM-13 [人急性髓系白血病细胞MOLM-13]; experiment: MTT proliferation inhibition, MOLM-13 cells, 72 h; type: cell-based
[4] = system: human large cell lung cancer cells H460 [人大细胞肺癌细胞 H460]; experiment: MTT proliferation inhibition, H460 cells, 72 h; type: cell-based
[5] = system: human liver cancer cells HEPG-2 [人肝癌细胞HEPG-2]; experiment: MTT proliferation inhibition, HEPG-2 cells, 72 h; type: cell-based; details: 0.625-20 μg/ml
[6] = system: human cervical cancer cells HELA [人宫颈癌细胞HELA]; experiment: MTT proliferation inhibition, HELA cells, 72 h; type: cell-based; details: within the measured range (0.625-20 μg/ml)
[7] = Water solubility (statement in words); type: physicochemical

- IC50 ([1]; MTT): 1.239 µg/mL
- IC50 ([2]; MTT): 1.388 µg/mL
- IC50 ([3]; MTT): 1.9 µg/mL
- IC50 ([4]; MTT): 1.131 µg/mL
- water solubility [7]: 水溶性较差
Substance: 呋喃并[2 ' ',3 ' ':5 ' ',6 ' ']萘并[1 ' ',2'':7 ',8 ']环十二烷[1 ',2':5,6]萘并[1,2-b]呋喃-10,11,21,22-四酮,6,7,8,9,19,20-六氢-1,12,17-三甲基-6-亚甲基-,(17E)- [四氢甘西鼠尾新酮A]
- inhibition, concentration dependence ([1]; Figure 3, 0.625-20 μg/ml): 呈剂量依赖性
- inhibition, concentration dependence ([2]; Figure 3, 0.625-20 μg/ml): 呈剂量依赖性
- inhibition, concentration dependence ([3]; Figure 3, 0.625-20 μg/ml): 呈剂量依赖性
- inhibition, concentration dependence ([4]; Figure 3, 0.625-20 μg/ml): 呈剂量依赖性
- in vitro inhibitory activity [5]: 体外抑制活性较弱
- in vitro inhibitory activity [6]: 在测量范围内未发现抑制活性
